Source: the SangsterLogP compilation

Assay: method code SF-AS, from DOI: 10.1002/chin.197535153

| logP | Structure (SMILES) |
| --- | --- |
| 3.29 | Nc1ccc(C(=O)Oc2ccccc2F)c(O)c1 |
| 2.04 | Nc1ccc(OC(=O)c2ccc(N)cc2O)cc1 |
| 3.72 | Nc1ccc(C(=O)Oc2ccccc2Cl)c(O)c1 |
| 2.88 | COc1ccccc1OC(=O)c1ccc(N)cc1O |
| 3.88 | Cc1cccc(C)c1OC(=O)c1ccc(N)cc1O |
| 4.28 | CC(C)c1ccccc1OC(=O)c1ccc(N)cc1O |
| 4.27 | Nc1ccc(C(=O)Oc2ccc(Cl)cc2Cl)c(O)c1 |
| 3.14 | Cc1ccccc1OC(=O)c1ccc(N)cc1O |
| 3.61 | Nc1ccc(C(=O)Oc2cccc(C(F)(F)F)c2)c(O)c1 |
| 3.38 | Cc1ccc(OC(=O)c2ccc(N)cc2O)cc1 |
| 4.12 | CC(C)c1ccc(OC(=O)c2ccc(N)cc2O)cc1 |
| 2.08 | Nc1cccc(OC(=O)c2ccc(N)cc2O)c1 |
| 3.74 | Nc1ccc(C(=O)Oc2ccccc2Br)c(O)c1 |
| 3.6 | Nc1ccc(C(=O)Oc2ccc(Cl)cc2)c(O)c1 |
| 3.25 | COc1cccc(OC(=O)c2ccc(N)cc2O)c1 |
| 3.84 | Nc1ccc(C(=O)Oc2cccc(Br)c2)c(O)c1 |
| 4.21 | CC(C)(C)c1ccccc1OC(=O)c1ccc(N)cc1O |
| 3.07 | COc1ccc(OC(=O)c2ccc(N)cc2O)cc1 |
| 3.15 | Nc1ccc(C(=O)Oc2ccccc2)c(O)c1 |
| 3.9 | Nc1ccc(C(=O)Oc2cccc(Cl)c2)c(O)c1 |
| 3.46 | Nc1ccc(C(=O)Oc2ccc(Br)cc2)c(O)c1 |
| 3.64 | Cc1cccc(OC(=O)c2ccc(N)cc2O)c1 |
| 0.87 | Nc1ccc(C(=O)O)c(O)c1 |
| 3.27 | Nc1ccc(C(=O)Oc2ccc(F)cc2)c(O)c1 |
| 3.42 | Nc1ccc(C(=O)Oc2cccc(F)c2)c(O)c1 |
